# Peptide text beside a SMILES is read from it. * marks the point of attachment. Benzoyl(4-Br) = O=C(c1ccc(Br)cc1)*; Myristoyl = CCCCCCCCCCCCCC(=O)*
# Columns and labels:
# MDA-MB-231-WT cells [1] = assay: Apoptosis assay (annexin/PI); format: cell-based; conditions: for apoptosis induced: within 48 h; for induction of apoptosis: 50-200 μM
# Protocol: (§1) MDA231-WT and AsPC1 ells were seeded into 6-well plates at a density of 4×10^5/2 ml of RPMI medium per well and grown overnight. Next day cells were treated with GIPC inhibitor peptides in a time dependent (48 h-96 h) and dose dependent manner (50-200 μM). After treatment with definite time, cells were extensively washed with PBS and tested with the Annexin V-FITC Apoptosis Detection Kit (Biovision, Cat. No. #K101-100) per the manufacturer's instructions.
# EGFR [2] = assay: Western blot of EGFR in MDA-MB-231A-WT cells; format: cell-based; conditions: 48 hours; 50, 100, 200 μM
# Protocol: (§2) AsPC1, MDA231-WT cells were grown in a 100 mm tissue culture dish in RPMI medium containing serum, L-glutamine and antibiotics. At 60% confluency cells were treated with GIPC inhibitor peptides in a dose dependent and time dependent manner. Untreated and GIPC inhibitor peptide-treated AsPC1 and MDA231-WT cells were washed thrice with 10 ml of cold PBS, lysed with ice-cold RIPA buffer along with halt and PIC incubated on ice for 10 min, and centrifuged at 4° C. for 10 min. The expression of IGF-1R and EGFR protein was determined in untreated and peptides treated AsPC1 and MD231A cells by Western blot analysis according to standard protocols. Briefly, protein concentration in the cell lysates was measured using Bradford assay kit (Bio-rad). The proteins were loaded on a 10% SDS-PAGE gel for separation and transferred to a membrane. […]
# (§3) Since GIPC association with IGF-1R is important for IGF-1R stability, the effects of CR1023 and CR1166 on the expression of both IGF-1R and EGFR were investigated. The levels of EGFR and IGF-1R in pancreatic cancer cells (AsPC1) and breast cancer cells (MDA-MB-231A-WT) were analyzed using Western blot analysis after treatment with GIPC inhibitor peptides or control peptides for 48 hours at different concentrations (50 μM, 100 μM and 200 μM) (FIG. 21, A and B). […]
# AsPC1 cells [3] = assay: MTS cell viability assay (Example 7); format: cell-based, human; conditions: for reduced cell viability observed: 50-200 μM
# Protocol: (§4) To assess the cytotoxic and cell viability effects of GIPC inhibitor peptides, an MTS assay was conducted in pancreatic cancer cells (AsPC1) and breast cancer cells (MDA-MB-231-WT) using CR1023 and CR1166, as well as control peptides (CR1162, CR1164, CR2055 and CR2059) in a dose dependent manner (50-200 μM).
# IGF-1R [4] = assay: Western blot of IGF-1R in AsPC1 cells; format: cell-based, human; conditions: 48 hours; 50, 100, 200 μM
# Protocol: as §2, §3
# MDA-MB-231-WT cells [5] = assay: MTS cell viability assay (Example 7); format: cell-based; conditions: for reduced cell viability observed: 50-200 μM
# Protocol: as §4
# AsPC1 cells [6] = assay: Apoptosis assay (annexin/PI); format: cell-based, human; conditions: for reduction in live AsPC1 cells / apoptosis induced: within 48 h; for induction of apoptosis: 50-200 μM
# Protocol: as §1
# [7] = biological target: T1, interaction between IGF-1R and GIPC (Homo sapiens, UniProt O14908); assay: Immunoprecipitation for GIPC, immunoblot against IGF-IR in AsPC1 cells; format: cell-based; conditions: for interaction between IGF-1R and GIPC: IP with GIPC antibody (N-19); for protein levels of IGF-IR: in vitro model
# T1 construct: endogenous in cells; host or cells: AsPC1
# T1 sequence (O14908 1-333): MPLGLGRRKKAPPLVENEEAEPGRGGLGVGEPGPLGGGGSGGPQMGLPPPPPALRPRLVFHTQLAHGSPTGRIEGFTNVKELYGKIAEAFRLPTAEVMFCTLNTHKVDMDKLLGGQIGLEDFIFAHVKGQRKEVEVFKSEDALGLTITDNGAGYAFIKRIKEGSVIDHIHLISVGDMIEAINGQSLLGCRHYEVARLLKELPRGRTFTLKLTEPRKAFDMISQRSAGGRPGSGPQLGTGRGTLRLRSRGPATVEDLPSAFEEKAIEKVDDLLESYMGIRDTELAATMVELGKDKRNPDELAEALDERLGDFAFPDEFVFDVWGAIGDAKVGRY
# Protocol: AsPC1 cells were treated and lysate was collected in RIPA buffer. After immunoprecipitation with a GIPC antibody (N-19), western blot analysis was performed.
# [8] = biological target: T2, co-localization of GIPC and IGF-1R (Homo sapiens, UniProt O14908); assay: Duolink II co-localization of GIPC and IGF-1R in AsPC1 cells; format: cell-based
# T2 construct: endogenous in cells; host or cells: AsPC1
# T2 sequence (O14908 1-333): T1 sequence (O14908 1-333)
# Protocol: Co-localization experiments were performed using a Duolink II Fluorescence kit to visualize the co-localization of GIPC and IGF-1R in control untreated AsPC1 cells (FIG. 23). Red fluorescence indicated the co-localization of GIPC and IGF-1R in AsPC1 cells.
# EGFR [9] = assay: Western blot of EGFR in AsPC1 cells; format: cell-based, human; conditions: 48 hours; 50, 100, 200 μM
# Protocol: as §2, §3
# IGF-1R [10] = assay: Western blot of IGF-1R in MDA-MB-231A-WT cells; format: cell-based; conditions: 48 hours; 50, 100, 200 μM
# Protocol: as §2, §3
# [11] = test system: AsPC1 cells expressing GFP/luciferase; assay: Pancreatic tumor model, intratumoral injections; format: in vivo, female SCID mice; conditions: for pancreatic tumor growth over time compared to control peptides: intratumoral, alternate days, one month
# Protocol: (§5) In vivo tumor model experiments using female SCID mice were performed to test the effectiveness of GIPC inhibitor peptides. The pancreatic tumor model was established by injecting 5×10^6 AsPC1 cells expressing GFP/luciferase resuspended in 50 μL of sterile PBS into the mouse right flank. Similarly, the breast tumor growth model was established in mice by injecting 2×10^6 MD-MBA-231-WT cells resuspended in 50 μL of sterile PBS into the mammary fat pad of the female SCID mice. When tumors volumes reached 50-100 mm^3, the GIPC inhibitor peptides and controls were intratumorally injected on alternate days over a period of one month. In order to monitor the pancreatic tumor burden, the mice were non-invasively imaged using the IVIS 200 Bioluminescence Imaging system (Xenon Corp.) before sacrificing. After bioluminescence imaging, the effect of the peptides on tumor growth (weight and volume) and EGFR and IGF-1R expression from tumors collected from different groups were examined. Tumors collected after sacrificing the SCID mice were measured by digital slide calipers using the (½ab^2) formula.
# MD-MBA-231-WT cells = assay: Breast tumor growth model, intratumoral injections; format: in vivo, female SCID mice
# Protocol: as §5
SMILES,apoptosis induced (MDA-MB-231-WT cells [1]; 50 μM),apoptosis induced (MDA-MB-231-WT cells [1]; 200 μM),induction of apoptosis (MDA-MB-231-WT cells [1]),EGFR expression compared to control peptides (EGFR [2]),reduced cell viability observed (AsPC1 cells [3]),IGF-1R expression compared to control peptides (IGF-1R [4]),reduced cell viability observed (MDA-MB-231-WT cells [5]),reduction in live AsPC1 cells (AsPC1 cells [6]; 50 μM),reduction in live AsPC1 cells (AsPC1 cells [6]; 200 μM),induction of apoptosis (AsPC1 cells [6]),interaction between IGF-1R and GIPC [7],protein levels of IGF-IR [7],red fluorescence (co-localization of GIPC and IGF-1R) compared to control [8],EGFR expression compared to control peptides (EGFR [9]),IGF-1R expression compared to control peptides (IGF-1R [10]),pancreatic tumor growth over time compared to control peptides [11],further results
"CCCCCCCCCCCCCC(=O)N1CCC[C@H]1C(=O)N[C@@H](CO)C(=O)N[C@@H](CCC(N)=O)C(=O)N[C@@H](CO)C(=O)N[C@@H](CO)C(=O)N[C@@H](CO)C(=O)N[C@@H](CCC(=O)O)C(=O)N[C@@H](C)C(=O)O [CR1023, My-PSQSSSEA] (Myristoyl-PSQSSSEA-OH; C-terminus assumed)",~30%,~35%,significant induction of apoptosis,reduced,Reduced cell viability,reduced,Reduced cell viability,~78%,~62%,significant induction of apoptosis,interfere with the interaction,reduced protein levels of IGF-IR significantly,reduced red fluorescence,reduced,reduced,significantly suppressed the pancreatic tumor growth,
"CCCCCCCCCCCCCC(=O)N1CCC[C@H]1C(=O)N[C@@H](CO)C(=O)N[C@@H](CCC(N)=O)C(=O)N[C@@H](CO)C(=O)N[C@@H](CCCCNC(=O)c1ccc(Br)cc1)C(=O)N[C@@H](CO)C(=O)N[C@@H](CCCCNC(=O)c1ccc(Br)cc1)C(=O)N[C@@H](C)C(=O)O [CR1166, My-PSQSK(4-Br-ben)SK(4-Br-ben)A] (Myristoyl-PSQSK(Benzoyl(4-Br))SK(Benzoyl(4-Br))A-OH; C-terminus assumed)",~54%,~61%,significant induction of apoptosis,reduced,Reduced cell viability,reduced,Reduced cell viability,~53%,~35%,significant induction of apoptosis,interfere with the interaction,reduced protein levels of IGF-IR significantly,reduced red fluorescence,reduced,reduced,significantly suppressed the pancreatic tumor growth,"cell viability reduced more compared to CR1023 (AsPC1 cells [3]; 50 μM): ~50%; cell viability reduced more compared to CR1023 (AsPC1 cells [3]; 100 μM): ~45%; cell viability reduced more compared to CR1023 (AsPC1 cells [3]; 200 μM): ~35%; cell viability reduced more compared to CR1023 (MDA-MB-231-WT cells [5]; at 50 μM, 100 μM, and 200 μM): 30-33%; apoptosis induced (AsPC1 cells [6]; 50 μM): ~47%; apoptosis induced (AsPC1 cells [6]; 200 μM): ~65%; EGFR expression in tumor compared to control CR2055 ([11]; pancreatic tumors): significant reduction; IGF-1R expression in tumor compared to control CR2055 ([11]; pancreatic tumors): significant reduction; tumor regression as compared to control DMSO-PBS-treated mice ([11]; pancreatic tumors): ~4.8 times; tumor regression as compared to mice treated with CR1023 ([11]; pancreatic tumors): ~2.3 times; tumor regression as compared to mice treated with CR2055 ([11]; pancreatic tumors): ~3.8 times; tumor regression as compared to mice treated with CR2059 ([11]; pancreatic tumors): ~3.9 times; breast tumor regression as compared to mice treated with CR1023 (MD-MBA-231-WT cells; CR1023 data not shown): ~1.4 times; IGF-1R expression in tumor compared to CR2059 (MD-MBA-231-WT cells; breast tumors): significant reduction; breast tumor growth over time compared to controls (MD-MBA-231-WT cells; intratumoral, alternate days): significantly suppressed breast tumor growth; breast tumor regression as compared to control DMSO-PBS-treated mice (MD-MBA-231-WT cells; mouse, in vivo): ~2.7 times; breast tumor regression as compared to mice treated with CR2055 (MD-MBA-231-WT cells; mouse, in vivo): ~2.1 times; breast tumor regression as compared to mice treated with CR2059 (MD-MBA-231-WT cells; mouse, in vivo): ~2.2 times"

# — patent publication US9163063B2, “Peptides and nanoparticles for therapeutic and diagnostic applications” (Trustees of Dartmouth College, priority 2009, dated 2015)
